Experimental data as given in PMC6270359, “Cholinesterase Enzymes Inhibitors from the Leaves of Rauvolfia Reflexa and Their Molecular Docking Study” (Molecules, 2013).
Values joined by “and” are separate entries in the source; they are usually repeats but may differ in a detail not shown here. Equal values may be shown once. Read-outs that look alike come from different tables or passages of the source.

Assays:
[1] = biological target: T1, acetylcholinesterase from electric eel (AChE) (Electrophorus electricus, UniProt O42275); assay: Acetylcholinesterase inhibitory assay (Ellman's microplate assay); type: biochemical; conditions: for IC50: Mean ± SD (n = 3)
T1 construct: purchased Sigma Chemicals (St. Louis, MO, USA)
Method: (§1) Acetylthiocholine iodide (ATCl), acetylcholinesterase from electric eel (AChE), 5,5'-dithiobis[2-nitrobenzoic acid] […] All the other reagents used were of analytical grade.
(§2) Cholinesterase enzymes inhibitory potential of test samples was evaluated using Ellman’s microplate assay following the method described by Ahmed and Gilani with slight modifications. […] The concentration of DMSO in final reaction mixture was 1%.
(§3) For acetylcholinesterase (AChE) inhibitory assay, 140 μL of 0.1 M sodium phosphate buffer (pH 8) was first added to a 96-wells microplate followed by 20 μL of test samples and 20 μL of 0.09 units/mL acetylcholinesterase enzyme. After 15 min of pre-incubation at 25 °C, 10 μL of 10 mM 5,5'-dithiobis (2-nitrobenzoic acid) was added into each well, followed by 10 μL of 14 mM acetylthiocholine iodide. After the initiation of enzymatic reaction, absorbance of the coloured end-product was measured for 15 min using Tecan Infinite 200 Pro Microplate Spectrophotometer (Männedorf, Switzerland) at 417 nm.
(§4) For butyrylcholinesterase (BChE) inhibitory assay, the same procedures as described above were followed except for the use of enzyme and substrate, which were BChE from equine serum and S-butyrylthiocholine chloride, respectively. Each test was conducted in triplicate. Absorbencies of the test samples were corrected by subtracting the absorbance of their respective blank. […] Percentage inhibition was calculated using the following formula: Percentage inhibition (%) = Absorbance of control - Absorbance of test sample/Absorbance of control×100%

[2] = biological target: T2, butyrylcholinesterase from equine serum (BChE) (Equus caballus, UniProt P81908); assay: Butyrylcholinesterase inhibitory assay (Ellman's microplate assay); type: biochemical
T2 construct: purchased Sigma Chemicals (St. Louis, MO, USA); host or cells: equine serum
Method: as §1, §2, §3, §4

[3] = isolated chemical constituents at 10 μg/mL, initial screening
[4] = chemical constituents, read-out: AChE inhibition, IC50 (converted)

T1 sequence (O42275 24-633): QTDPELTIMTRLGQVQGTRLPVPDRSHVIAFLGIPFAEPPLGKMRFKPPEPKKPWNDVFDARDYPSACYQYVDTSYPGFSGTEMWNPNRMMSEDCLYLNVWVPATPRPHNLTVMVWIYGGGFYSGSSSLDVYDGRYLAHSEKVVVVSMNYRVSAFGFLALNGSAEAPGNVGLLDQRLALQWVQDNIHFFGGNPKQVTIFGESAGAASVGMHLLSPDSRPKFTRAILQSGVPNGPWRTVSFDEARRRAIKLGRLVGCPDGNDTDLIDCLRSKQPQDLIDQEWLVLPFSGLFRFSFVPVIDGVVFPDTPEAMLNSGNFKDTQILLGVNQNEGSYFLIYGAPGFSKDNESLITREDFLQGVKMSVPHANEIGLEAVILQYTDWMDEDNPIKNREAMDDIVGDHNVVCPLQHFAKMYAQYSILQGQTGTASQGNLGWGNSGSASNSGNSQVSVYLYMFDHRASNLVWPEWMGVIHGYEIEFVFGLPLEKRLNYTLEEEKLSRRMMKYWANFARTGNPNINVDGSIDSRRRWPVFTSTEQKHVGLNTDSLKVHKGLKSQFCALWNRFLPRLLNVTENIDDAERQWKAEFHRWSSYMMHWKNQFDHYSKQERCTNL
T2 sequence (P81908 whole entry): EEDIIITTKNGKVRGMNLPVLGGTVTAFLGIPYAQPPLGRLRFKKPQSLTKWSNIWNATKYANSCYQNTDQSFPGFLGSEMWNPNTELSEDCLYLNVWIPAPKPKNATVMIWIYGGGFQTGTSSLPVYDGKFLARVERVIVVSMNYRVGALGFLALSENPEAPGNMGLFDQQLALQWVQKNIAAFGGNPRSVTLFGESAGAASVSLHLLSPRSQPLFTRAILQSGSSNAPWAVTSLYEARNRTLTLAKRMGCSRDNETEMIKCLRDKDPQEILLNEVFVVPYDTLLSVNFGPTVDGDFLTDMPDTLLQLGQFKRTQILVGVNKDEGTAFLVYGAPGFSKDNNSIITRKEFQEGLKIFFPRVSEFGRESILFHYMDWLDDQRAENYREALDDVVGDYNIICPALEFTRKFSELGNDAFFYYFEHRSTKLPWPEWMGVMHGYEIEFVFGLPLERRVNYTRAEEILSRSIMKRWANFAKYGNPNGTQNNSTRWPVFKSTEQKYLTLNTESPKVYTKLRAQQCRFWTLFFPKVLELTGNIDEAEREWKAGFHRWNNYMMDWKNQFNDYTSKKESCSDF

Compound | IC50 ([1]; AChE inhibition, IC50, chemical constituents) | AChE inhibition [1, 3] | IC50 ([1]; read-out: AChE inhibition, IC50, chemical constituents) | Selectivity for BChE ([2]; chemical constituents, IC50(AChE)/IC50(BChE)) | IC50 ([2]; chemical constituents, Mean ± SD (n = 3), read-out: BChE inhibition, IC50 (converted)) | inhibition at 10 µg/mL [2, 3] | Selectivity for AChE ([1]; chemical constituents, IC50(BChE)/IC50(AChE)) | IC50 [1, 4] | inhibition at 10 µg/mL [1, 3]
COc1cc(/C=C/C(=O)O)cc(OC)c1OC [Compound 1, (E)-3-(3,4,5-Trimethoxyphenyl) acrylic acid] | 60.1 µM | much lower inhibition | 60.2 ± 14.4 µM | – | – | – | – | – | –
COC(=O)/C=C/c1cc(OC)c(O)c(OC)c1 [Compound 2, (E)-methyl 3-(4-hydroxy-3,5-dimethoxyphenyl) acrylate] | – | – | – | 2.56 | 61.7 µM | 91.3% | 0.39 | 158 µM | 40.4%
O=C1NCCc2c1[nH]c1ccccc21 [Compound 4, 1,2,3,4-Tetrahydro-1-oxo-β-carboline] | – | – | – | – | – | – | – | 83.3 µM and 83.4 µM | 41.3%
